In ChEMBL document CHEMBL1140832, “Antimitotic quinoid triterpenes from Maytenus chuchuhuasca” (Bioorg Med Chem Lett, 2008):
The source made the active and inactive calls. No cut-off for these calls is given here.

How the values were obtained:
[1] = Inhibition of tubulin polymerization at 100 uM
RPMI-8226 = assay: Growth inhibition of human RPMI8226 cells; assay type: functional, cell-based
[2] = Inhibition of tubulin polymerization

| SMILES | Activity [1] | IC50 (RPMI-8226) [µM] | IC50 [2] [µM] |
| --- | --- | --- | --- |
| COC(=O)[C@]1(C)CC[C@]2(C)CC[C@]3(C)C4=CC(=O)c5c(cc(O)c(O)c5C)[C@]4(C)CC[C@@]3(C)[C@@H]2C1 | inactive |  |  |
| COc1c(O)cc2c(c1C)C(=O)C=C1[C@@]2(C)CC[C@@]2(C)[C@@H]3C[C@@H](C)C(=O)C[C@]3(C)CC[C@]12C | inactive |  |  |
| CC1=C(O)C(=O)C=C2C1=CC=C1[C@@]2(C)CC[C@@]2(C)[C@@H]3C[C@](C)(C(=O)O)CC[C@]3(C)CC[C@]12C [CELASTROL] |  | 3 | 2 |
| COC(=O)[C@]1(C)CC[C@]2(C)CC[C@]3(C)C4=CC=C5C(=CC(=O)C(O)=C5C)[C@]4(C)CC[C@@]3(C)[C@@H]2C1 [PRISTIMERIN] |  | 16.6 | 8 |
| CC1=C(O)C(=O)C=C2C1=CC=C1[C@@]2(C)CC[C@@]2(C)[C@@H]3C[C@@H](C)C(=O)[C@@H](O)[C@]3(C)CC[C@]12C [TINGENIN B] |  | 18.3 | 12 |
| CC1=C(O)C(=O)C=C2C1=CC=C1[C@@]2(C)CC[C@@]2(C)[C@@H]3C[C@@H](C)C(=O)C[C@]3(C)CC[C@]12C [TINGENONE] |  | 7 | 8 |
| CC[C@]1(O)C[C@@H]2CN(CCc3c([nH]c4ccccc34)[C@@](C(=O)OC)(c3cc4c(cc3OC)N(C)[C@H]3[C@@](O)(C(=O)OC)[C@H](OC(C)=O)[C@]5(CC)C=CCN6CC[C@]43[C@@H]65)C2)C1 [VINBLASTINE] |  | 0.028 | 1 |
